This experiment addresses human TPH1 (Homo sapiens (Human), UniProt P17752). The experiment in a line: Biochemical in vitro assay using fluorescence readout (TPH1 inhibition).
Where [1] appears, read: human TPH1, fluorescence readout.
[2] abbreviates: full length human TPH1, 40 μM L-tryptophan, 15° C., 60 minutes, fluorescence at 540 nm, mean if determined several times.

Results on 24 compounds are retold here after US9765092B2, “Tricyclic piperidine compounds” (ACTELION PHARMACEUTICALS LTD, priority 2013, dated 2017).

human TPH1, sequence (P17752 whole entry): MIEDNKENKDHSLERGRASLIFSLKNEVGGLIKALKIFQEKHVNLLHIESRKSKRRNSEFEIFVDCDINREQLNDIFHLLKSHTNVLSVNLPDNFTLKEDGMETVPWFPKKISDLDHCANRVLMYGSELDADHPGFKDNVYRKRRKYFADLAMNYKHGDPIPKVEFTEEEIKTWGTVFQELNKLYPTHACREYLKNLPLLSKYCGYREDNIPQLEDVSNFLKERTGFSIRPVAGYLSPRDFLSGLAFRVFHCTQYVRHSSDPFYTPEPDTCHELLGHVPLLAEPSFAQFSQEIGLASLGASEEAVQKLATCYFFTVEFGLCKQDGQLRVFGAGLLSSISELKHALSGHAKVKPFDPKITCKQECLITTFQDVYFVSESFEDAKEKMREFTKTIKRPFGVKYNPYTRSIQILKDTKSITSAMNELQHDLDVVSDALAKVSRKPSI

With `CCc1nc(Cl)ncc1OCC(=O)N1CCc2nc3sc(C)nn3c2[C@@H]1c1ncc(C)cc1F` [Example 1.31.18, (R)-2-((2-chloro-4-ethylpyrimidin-5-yl)oxy)-1-(5-(3-fluoro-5-methylpyridin-2-yl)-2-methyl-7,8-dihydro-[1,3,4]thiadiazolo[2′,3′:2,3]imidazo[4,5-c]pyridin-6(5H)-yl)ethanone], half-maximal inhibition under setting [1] (IC50) was put at 49 nM.
As to `Cc1nn2c3c(nc2s1)CCN(C(=O)COc1ccc(N2CCOCC2)nc1Cl)C3c1nc(C(=O)N(C)C)co1` (stereo not drawn) [Example 1.43.1, 2-(6-(2-((2-Chloro-6-morpholinopyridin-3-yl)oxy)acetyl)-2-methyl-5,6,7,8-tetrahydro-[1,3,4]thiadiazolo[2′,3′:2,3]imidazo[4,5-c]pyridin-5-yl)-N,N-dimethyloxazole-4-carboxamide], under setting [2], the IC50 (commonly the concentration that inhibits the measured activity by half) amounted to 26 nM. That is a double-digit nanomolar value.
For the compound `N#Cc1ccc(OCC(=O)N2CCc3nc4scnn4c3C2c2ccc(Cl)cc2F)c(Cl)c1` (stereo not drawn) [Example 2.1.2, 3-chloro-4-(2-(5-(4-chloro-2-fluorophenyl)-7,8-dihydro-[1,3,4]thiadiazolo[2′,3′:2,3]imidazo[4,5-c]pyridin-6(5H)-yl)-2-oxoethoxy)benzonitrile], half-maximal inhibition under setting [1] (IC50) required 31 nM.
`CNc1ccc(OCC(=O)N2CCc3nc4sc(C)nn4c3C2c2ccc(Cl)cc2F)c(Cl)n1` (stereo not drawn) [Example 1.4.27, 1-(5-(4-Chloro-2-fluorophenyl)-2-methyl-7,8-dihydro-[1,3,4]thiadiazolo[2′,3′:2,3]imidazo[4,5-c]pyridin-6(5H)-yl)-2-((2-chloro-6-(methylamino)pyridin-3-yl)oxy)ethanone] had a half-maximal inhibitory concentration (IC50) under setting [2] of 6 nM.
`COCCN(C)c1ccc(OCC(=O)N2CCc3nc4sc(C)nn4c3C2c2ccc(Cl)cc2F)c(Cl)n1` (stereo not drawn) [Example 1.4.14, 1-(5-(4-Chloro-2-fluorophenyl)-2-methyl-7,8-dihydro-[1,3,4]thiadiazolo[2′,3′:2,3]imidazo[4,5-c]pyridin-6(5H)-yl)-2-((2-chloro-6-((2-methoxyethyl)(methyl)-amino)pyridin-3-yl)oxy)ethanone] returned an IC50 under setting [2] of 3 nM.
With `CCc1nc(NS(C)(=O)=O)ccc1OCC(=O)N1CCc2nc3sc(CF)nn3c2C1c1ncc(C)cc1F` (stereo not drawn) [Example 7.2.2, N-(6-ethyl-5-(2-(5-(3-fluoro-5-methylpyridin-2-yl)-2-(fluoromethyl)-7,8-dihydro-[1,3,4]thiadiazolo[2′,3′:2,3]imidazo[4,5-c]pyridin-6(5H)-yl)-2-oxoethoxy)pyridin-2-yl)methanesulfonamide], the midpoint of inhibition under setting [1], the IC50, lay at 20 nM.
Still for that read-out and setting: the value for `Cc1nn2c3c(nc2s1)CCN(C(=O)COc1ccc(C2(N(C)C)CC2)nc1Cl)C3c1ccc(Cl)cc1F` (stereo not drawn) [Example 1.4.44, 1-(5-(4-chloro-2-fluorophenyl)-2-methyl-7,8-dihydro-[1,3,4]thiadiazolo[2′,3′:2,3]imidazo[4,5-c]pyridin-6(5H)-yl)-2-((2-chloro-6-(1-(dimethylamino)cyclopropyl)pyridin-3-yl)oxy)ethanone] was 51 nM.
Same read-out and setting: with `Cc1nn2c3c(nc2s1)CCN(C(=O)COc1ccc(N2CCOCC2)nc1Cl)C3c1csc(C2OCCO2)c1` (stereo not drawn) [Example 1.85.1, 1-(5-(5-(1,3-dioxolan-2-yl)thiophen-3-yl)-2-methyl-7,8-dihydro-[1,3,4]thiadiazolo[2′,3′:2,3]imidazo[4,5-c]pyridin-6(5H)-yl)-2-((2-chloro-6-morpholinopyridin-3-yl)oxy)ethan-1-one] the figure was 13 nM.
Turning to `Cc1nn2c3c(nc2s1)CCN(C(=O)COc1ccc(C(=O)N(C)C)nc1Cl)C3c1ccc(OC(F)F)cc1F` (stereo not drawn) [Example 1.54.1, 6-chloro-5-(2-(5-(4-(difluoromethoxy)-2-fluorophenyl)-2-methyl-7,8-dihydro-[1,3,4]thiadiazolo[2′,3′:2,3]imidazo[4,5-c]pyridin-6(5H)-yl)-2-oxoethoxy)-N,N-dimethylpicolinamide], under setting [1], the IC50 is 14 nM.
`CC(=O)Nc1ccc(C2c3c(nc4sc(C)nn34)CCN2C(=O)COc2ccc(N3CCOCC3)nc2Cl)s1` (stereo not drawn) [Example 1.13.1, N-(5-(6-(2-((2-chloro-6-morpholinopyridin-3-yl)oxy)acetyl)-2-methyl-5,6,7,8-tetrahydro-[1,3,4]thiadiazolo [2′,3′:2,3]imidazo[4,5-c]pyridin-5-yl)thiophen-2-yl)acetamide] had an IC50 under setting [1] of 54 nM.
Still for that read-out and setting: with `CCN(CC)C(=O)c1cc(F)c(C2c3c(nc4sc(C)nn34)CCN2C(=O)COc2ccc(NS(C)(=O)=O)nc2Cl)s1` (stereo not drawn) [Example 1.64.1, 5-(6-(2-((2-chloro-6-(methylsulfonamido)pyridin-3-yl)oxy)acetyl)-2-methyl-5,6,7,8-tetrahydro-[1,3,4]thiadiazolo [2′,3′:2,3]imidazo[4,5-c]pyridin-5-yl)-N,N-diethyl-4-fluorothiophene-2-carboxamide] the figure was 21 nM; with `Cc1nn2c3c(nc2s1)CCN(C(=O)COc1ccc(N2CCOCC2)nc1Cl)C3c1nc(CN(C)C)cs1` (stereo not drawn) [Example 1.17.1, 2-((2-chloro-6-morpholinopyridin-3-yl)oxy)-1-(5-(4-((dimethylamino)methyl)thiazol-2-yl)-2-methyl-7,8-dihydro-[1,3,4]thiadiazolo[2′,3′:2,3]imidazo[4,5-c]pyridin-6(5H)-yl)ethanone], 62 nM.
Regarding `Cc1nn2c3c(nc2s1)CCN(C(=O)COc1ccc(N2CC(F)(F)C2)nc1Cl)C3c1cc(C(=O)N(C)C)cs1` (stereo not drawn) [Example 1.9.2, 5-(6-(2-((2-Chloro-6-(3,3-difluoroazetidin-1-yl)pyridin-3-yl)oxy)acetyl)-2-methyl-5,6,7,8-tetrahydro-[1,3,4]thiadiazolo[2′,3′:2,3]imidazo[4,5-c]pyridin-5-yl)-N,N-dimethylthiophene-3-carboxamide], under setting [2], the IC50 turned out to be 32 nM. In other words, the double-digit nanomolar range.
Under setting [1], `Cc1ccc(C2c3c(nc4sc(C)nn34)CCN2C(=O)COc2ccc(C(=O)N(C)C3CC3)nc2Cl)c(F)c1` (stereo not drawn) [Example 1.53.3, 6-chloro-N-cyclopropyl-5-(2-(5-(2-fluoro-4-methyl-phenyl)-2-methyl-7,8-dihydro-[1,3,4]thiadiazolo-[2′,3′:2,3]imidazo[4,5-c]pyridin-6(5H)-yl)-2-oxoethoxy)-N-methylpicolinamide] had an IC50 of 15 nM.
Under setting [1], `CCc1nc(NS(C)(=O)=O)ncc1OCC(=O)N1CCc2nc3sc(C)nn3c2[C@@H]1c1ncc(C)cc1F` [Example 1.31.19, (R)-N-(4-ethyl-5-(2-(5-(3-fluoro-5-methylpyridin-2-yl)-2-methyl-7,8-dihydro-[1,3,4]thiadiazolo[2′,3′:2,3]imidazo[4,5-c]pyridin-6(5H)-yl)-2-oxoethoxy)pyrimidin-2-yl)methanesulfonamide] had an IC50 of 51 nM.
`Cc1cc(Cl)ccc1OCC(=O)N1CCc2nc3sccn3c2C1c1c(C)noc1C` (stereo not drawn) [Example 6.5.4, 2-(4-chloro-2-methylphenoxy)-1-(5-(3,5-dimethylisoxazol-4-yl)-7,8-dihydrothiazolo[2′,3′:2,3]imidazo[4,5-c]-pyridin-6(5H)-yl)ethanone]: under setting [1], it took 27 nM to reach half-maximal inhibition (IC50).
“1-(5-(4-chloro-2-fluorophenyl)-7,8-dihydrothiazolo[2′,3′:2,3]imidazo[4,5-c]pyridin-6(5H)-yl)-2-(2-ethyl-4-fluorophenoxy)ethanone [Example 6.4.1]” registered an IC50 under setting [1] of 14 nM.
The same measure, in the same setting: with `CCc1nc(C)ccc1OCC(=O)N1CCc2nc3sccn3c2C1c1c(C)nn(C)c1C` (stereo not drawn) [Example 6.15.1, ((2-ethyl-6-methylpyridin-3-yl)oxy)-1-(5-(1,3,5-trimethyl-1H-pyrazol-4-yl)-7,8-dihydrothiazolo-[2′,3′:2,3]imidazo[4,5-c]pyridin-6(5H)-yl)ethanone] the figure was 149 nM; with `CCc1nc(N2CCCS2(=O)=O)ccc1OCC(=O)N1CCc2nc3sc(C(F)F)nn3c2C1c1sc(C)nc1C` (stereo not drawn) [Example 8.3.2, 1-(2-(difluoromethyl)-5-(2,4-dimethylthiazol-5-yl)-7,8-dihydro-[1,3,4]thiadiazolo[2′,3′:2,3]imidazo[4,5-c]pyridin-6(5H)-yl)-2-((6-(1,1-dioxidoisothiazolidin-2-yl)-2-ethylpyridin-3-yl)oxy)ethanone], 13 nM; with `CCn1nc(C(=O)N(C)C)cc1OCC(=O)N1CCc2nc3sc(C)nn3c2C1c1sccc1F` (stereo not drawn) [Example 1.23.13, 1-ethyl-5-(2-(5-(3-fluorothiophen-2-yl)-2-methyl-7,8-dihydro-[1,3,4]thiadiazolo[2′,3′:2,3]imidazo[4,5-c]pyridin-6(5H)-yl)-2-oxoethoxy)-N,N-dimethyl-1H-pyrazole-3-carboxamide], 103 nM.
Turning to `CCc1nc(NS(C)(=O)=O)ncc1OCC(=O)N1CCc2nc3sc(C)nn3c2C1c1sc(C)nc1C` (stereo not drawn) [Example 1.68.9, N-(5-(2-(5-(2,4-dimethylthiazol-5-yl)-2-methyl-7,8-dihydro-[1,3,4]thiadiazolo[2′,3′:2,3]imidazo[4,5-c]pyridin-6(5H)-yl)-2-oxoethoxy)-4-ethylpyrimidin-2-yl)methanesulfonamide], under setting [1], half-maximal inhibition (IC50) required 66 nM.
The compound `Cc1nn2c3c(nc2s1)CCN(C(=O)COc1ccc(N(C)C)nc1Cl)C3c1cc(CN(C)C)cs1` (stereo not drawn) [Example 1.8.4, 2-((2-chloro-6-(dimethylamino)pyridin-3-yl)oxy)-1-(5-(4-((dimethylamino)methyl)thiophen-2-yl)-2-methyl-7,8-dihydro-[1,3,4]thiadiazolo[2′,3′:2,3]imidazo[4,5-c]pyridin-6(5H)-yl)ethanone] gave an IC50 under setting [1] of 106 nM.
Consider `COc1ccc(C2c3c(nc4sccn34)CCN2C(=O)COc2ccc(CN3CCOCC3)nc2Cl)c(F)c1` (stereo not drawn) [Example 6.3.2, 2-((2-chloro-6-(morpholinomethyl)pyridin-3-yl)oxy)-1-(5-(2-fluoro-4-methoxyphenyl)-7,8-dihydrothiazolo-[2′,3′:2,3]imidazo[4,5-c]pyridin-6(5H)-yl)ethanone], for which 9 nM corresponded to half-maximal inhibition under setting [1] (IC50).
Under setting [1], `CCc1nc(NS(C)(=O)=O)ccc1OCC(=O)N1CCc2nc3sc(C)nn3c2C1c1ccc(Cl)cc1F` (stereo not drawn) [Example 1.4.51, N-(5-(2-(5-(4-chloro-2-fluorophenyl)-2-methyl-7,8-dihydro-[1,3,4]thiadiazolo[2′,3′:2,3]imidazo[4,5-c]-pyridin-6(5H)-yl)-2-oxoethoxy)-6-ethylpyridin-2-yl)methanesulfonamide] returned a 50% inhibitory concentration (IC50) of 12 nM.
